According to publication PMC10914731, “Homo-BacPROTAC-induced degradation of ClpC1 as a strategy against drug-resistant mycobacteria” (Nature Communications, 2024):
“And” between values parts separate entries of the source, which are not always exact repeats. Equal entries are not always repeated. Where two headings read alike, the source gives them in different places.

Assays:
[1] = Microsomal stability, human; type: in vitro ADME
Outline: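 Metabolic depletion in liver microsomes (0.5 mg/ml, 1 mM NADPH, 37 °C) starting from 1 µmol/l test compound, sampled at multiple times with acetonitrile quench. LC-MS/MS quantitation; half-life converted to %Qh.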

[2] = type: in vitro ADME, Human
Mycobacterium abscessus = assay: microbe, parasite or virus in culture; type: cell-based
[3] = tested on: Mtb Beijing lineage HN878; type: cell-based, Mycobacterium tuberculosis
[4] = biological target: endogenous ClpC1 in Msm #607 cells (Mycolicibacterium smegmatis, UniProt A0R574); type: cell-based, M. smegmatis; settings: for ClpC1/Total protein / ClpC1 peak area / Total protein: well replicates of independent experiments
Acinetobacter baumannii = assay: MIC ESKAPES panel, Acinetobacter baumannii; type: cell-based
Description: (§1) Minimum inhibitory concentration (MIC) against ESKAPES panel of Gram positive and Gram negative pathogens (Enterococcus faecium, Staphylococcus aureus, Klebsiella pneumoniae, Acinetobacter baumannii, Pseudomonas aeruginosa, Enterobacter cloacae and Salmonella typhimurium [ESKAPES panel]) were determined at the FNDR by the standard broth dilution method [CLSI, M100]. […] Mueller Hinton broth (MHB) medium was used to grow ESKAPES panel strains. The individual cultures were added as 200 μL (inoculum of 3–7 × 10^5 cfu/ml) to the respective assay plates in each well to all columns, except the media control (200 μL of medium). […] The assay plates were incubated at 37 °C, and the results were noted on the 2nd day as turbidometric readout. The clear wells indicated inhibition of growth, while the turbid wells indicated uninhibited growth.

Pseudomonas aeruginosa = assay: MIC ESKAPES panel, Pseudomonas aeruginosa; type: cell-based
Description: as §1

full-length ClpC1 = biological target: T1, full-length ClpC1 (Mycolicibacterium smegmatis, UniProt A0R574); assay: Cell-free degradation of full-length ClpC1 (WES, SDS-PAGE); type: biochemical, M. smegmatis; settings: WES / SYPRO Ruby SDS-PAGE, result in words
T1 construct: We also analyzed whether full-length ClpC1 would be degraded in this assay; made in house
Excerpt: We also analyzed whether full-length ClpC1 would be degraded in this assay, by analyzing the stability of the full-length form monitored by a ClpC1-N-terminal antibody in the WES assays, or directly by SYPRO^TM Ruby stained SDS-PAGE gels in the presence or absence of ClpC1-NTD as additional substrate. The Homo-BacPROTACs tested induced no or only minor degradation of the full-length ClpC1 under these in vitro conditions (Fig. 4e). Whether this is due to hexamer formation stabilizing ClpC1 protomers or missing cofactor(s) of the protease complex, is currently unclear. Likewise, the exact sequential and structural features of native substrates targeted by ClpC1 are not known, except that partially disordered peptide segments can promote degradation.
For SDS-PAGE experiments, reaction samples were treated with 2.7 µl 4x Roti Load 1 (Roth #K929.1), instead of adding sample buffer and fluorescent mastermix, and incubated at 95 °C for 5 min. […] The PageRuler Prestained Protein Ladder (Thermo Scientific #26616) was used as a marker. […]

Enterococcus faecium = assay: MIC ESKAPES panel, Enterococcus faecium; type: cell-based
Description: as §1

[5] = type: in vitro ADME, Rat
Mtb H37Rv = settings: combination with bedaquiline; cited from earlier work
[6] = Experiment 2, three replicate columns
[7] = Experiment 2, three replicate columns, read-out: MIC (µM) Mycobacterium abscessus
[8] = Mycobacteroides abscessus, Experiment 1, read-out: MIC Mycobacterium abscessus
[9] = Mycobacteroides abscessus, Experiment 2, three replicate columns, read-out: MIC (µM) Mycobacterium abscessus
[10] = Mycobacteroides abscessus, Experiment 2, three replicate columns, read-out: MIC (µg/ml) Mycobacterium abscessus
[11] = Mycobacteroides abscessus, mean ± SD, read-out: MIC Mycobacterium abscessus
[12] = Gram negative, n = 3 well replicates, read-out: MIC Acinetobacter baumanii
[13] = Gram-Negative Bacteria, replicates 1-3, read-out: MIC Acinetobacter baumannii
[14] = Pseudomonas aeruginosa, Gram negative, n = 3 well replicates
[15] = Pseudomonas aeruginosa, Gram-Negative Bacteria, replicates 1-3
[16] = Enterococcus faecium, Gram positive, n = 3 well replicates
[17] = Enterococcus faecium, Gram-Positive Bacteria, replicates 1-3

endogenous ClpC1 in Msm #607 cells, sequence (A0R574 whole entry): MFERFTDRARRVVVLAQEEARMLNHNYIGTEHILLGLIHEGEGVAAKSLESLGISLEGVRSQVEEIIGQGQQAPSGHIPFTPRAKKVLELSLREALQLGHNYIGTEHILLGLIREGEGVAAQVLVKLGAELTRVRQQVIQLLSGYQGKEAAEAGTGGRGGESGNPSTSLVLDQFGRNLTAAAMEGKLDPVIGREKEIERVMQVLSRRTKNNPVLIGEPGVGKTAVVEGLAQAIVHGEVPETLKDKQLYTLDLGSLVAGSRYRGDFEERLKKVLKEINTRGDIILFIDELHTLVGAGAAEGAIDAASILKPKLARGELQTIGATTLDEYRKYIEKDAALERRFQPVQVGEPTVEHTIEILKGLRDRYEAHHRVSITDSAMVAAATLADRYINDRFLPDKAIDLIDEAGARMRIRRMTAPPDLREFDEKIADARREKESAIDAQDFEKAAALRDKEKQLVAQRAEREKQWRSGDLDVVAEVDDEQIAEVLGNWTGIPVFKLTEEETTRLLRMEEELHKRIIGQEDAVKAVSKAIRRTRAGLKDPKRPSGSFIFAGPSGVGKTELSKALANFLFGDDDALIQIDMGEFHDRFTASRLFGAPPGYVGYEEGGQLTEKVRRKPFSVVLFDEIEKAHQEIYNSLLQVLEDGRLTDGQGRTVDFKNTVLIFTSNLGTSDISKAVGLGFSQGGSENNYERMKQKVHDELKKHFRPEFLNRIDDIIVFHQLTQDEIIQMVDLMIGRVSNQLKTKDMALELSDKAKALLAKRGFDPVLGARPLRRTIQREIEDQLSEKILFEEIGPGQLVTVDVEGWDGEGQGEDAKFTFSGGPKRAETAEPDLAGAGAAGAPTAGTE
T1 sequence (A0R574 whole entry): as above

For `COC(c1ccccc1)C1NC(=O)C(C)NC(=O)C(CC(C)CO)N(C)C(=O)C(Cc2cn(Cc3cn(CCOCCOCCOCCOCCn4cc(Cn5cc(CC6NC(=O)C(C(C)C)NC(=O)C(CC(C)C)N(C)C(=O)C(C(C)C)NC(=O)C(C(OC)c7ccccc7)NC(=O)C(C)NC(=O)C(CC(C)CO)N(C)C6=O)c6ccccc65)nn4)nn3)c3ccccc23)NC(=O)C(C(C)C)NC(=O)C(CC(C)C)N(C)C(=O)C(C(C)C)NC1=O` (stereo not drawn) [Compound 8], the “Microsomal Stability Human QH” value ([1]; Human) was >88.4 >88.4 >88.4%, the “Microsomal Stability Human” value ([1]; clearance in microsomes) was greater than 88 %Qh and the “Hepatocyte Human” value ([2]; clearance in hepatocytes) was 12 %Qh. The “MIC (µg/ml) Mycobacterium abscessus” value (Mycobacterium abscessus; [6]) was greater than 108.53 µg/mL, the MIC (Mycobacterium abscessus; [7]) was greater than 50 µM and the MIC (Mycobacterium abscessus; [8]) was > 50 µM and > 109 µg/mL. For the same compound, the MIC (Mycobacterium abscessus; [9]) was greater than 50 µM, the MIC (Mycobacterium abscessus; [10]) was greater than 109 µg/mL and the MIC (Mycobacterium abscessus; [11]) was greater than 50 µM. The “inhibition of bacterial growth, Mtb Beijing strain HN878” value ([3]; compared to the matching monomers, result in words) was “more efficient inhibition of bacterial”, the DC50 ([4]; 24 hours, value of the earlier manuscript version quoted in the peer review file, read-out: average DC50, ClpC1 degradation) was 571 nM and the DC50 ([4]; Msm #607, 24 h of incubation, read-out: average DC50, endogenous ClpC1 degradation) was 570 ± 400 nM. The ClpC1/Total protein ([4]; conc. 0.00038147 µM) was 0.2282 and 0.267 and 0.2648 and 0.2027 and 0.212 and 0.2298 and 0.7429 and 0.8229 and 0.7712, the ClpC1 peak area ([4]; conc. 0.00038147 µM) was 294811 and 344226 and 322628 and 390018 and 426373 and 358944 and 302120 and 328285 and 319637 and the Total protein ([4]; conc. 0.00038147 µM) was 1323644 and 1229496 and 1207050 and 1454716 and 1623647 and 1404254 and 524970 and 518103 and 465460. For the same compound, the ClpC1/Total protein ([4]; conc. 0.00305176 µM) was 0.2394 and 0.2569 and 0.2557 and 0.2218 and 0.1962 and 0.1042 and 0.78 and 0.7556 and 0.8129, the ClpC1 peak area ([4]; conc. 0.00305176 µM) was 298033 and 275548 and 121574 and 410944 and 384208 and 424052 and 320906 and 252067 and 328696 and the Total protein ([4]; conc. 0.00305176 µM) was 1340459 and 981268 and 1285339 and 1343857 and 1404470 and 1166366 and 526872 and 508500 and 521664. For the same compound, the ClpC1/Total protein ([4]; conc. 0.0244141 µM) was 0.2203 and 0.2456 and 0.2539 and 0.1932 and 0.1901 and 0.2179 and 0.789 and 0.7808 and 0.8172, the ClpC1 peak area ([4]; conc. 0.0244141 µM) was 219991 and 270896 and 315004 and 406280 and 373553 and 423254 and 300752 and 349284 and 304692 and the Total protein ([4]; conc. 0.0244141 µM) was 1364922 and 1422232 and 1199890 and 1138728 and 1425365 and 1445718 and 514950 and 478415 and 517944. For the same compound, the ClpC1/Total protein ([4]; conc. 0.195312 µM) was 0.1965 and 0.2082 and 0.2171 and 0.1985 and 0.1828 and 0.1625 and 0.6454 and 0.6178 and 0.5924, the ClpC1 peak area ([4]; conc. 0.195312 µM) was 206233 and 279281 and 214864 and 343404 and 327767 and 310653 and 236077 and 257791 and 242759 and the Total protein ([4]; conc. 0.195312 µM) was 1201296 and 1238340 and 1118172 and 1039169 and 1528116 and 1322136 and 532053 and 530512 and 524388. For the same compound, the ClpC1/Total protein ([4]; conc. 1.5625 µM) was 0.183 and 0.1832 and 0.1776 and 0.1788 and 0.1391 and 0.1421 and 0.6251 and 0.5883 and 0.5813, the ClpC1 peak area ([4]; conc. 1.5625 µM) was 199828 and 195826 and 198204 and 278984 and 250174 and 259931 and 291643 and 223291 and 227414 and the Total protein ([4]; conc. 1.5625 µM) was 1593808 and 1218853 and 1280312 and 1117747 and 1407385 and 1394918 and 446304 and 425280 and 447143. For the same compound, the ClpC1/Total protein ([4]; conc. 100 µM) was 0.09806 and 0.1539 and 0.02961 and 0.1406 and 0.1399 and 0.1212 and 0.4923 and 0.5713 and 0.5017, the ClpC1 peak area ([4]; conc. 100 µM) was 152582 and 201776 and 136372 and 183701 and 277792 and 199452 and 19555.5 and 216020 and 1024.1 and the Total protein ([4]; conc. 100 µM) was 199420 and 1403452 and 34585.2 and 1085305 and 1442135 and 1125592 and 373184 and 486260 and 397564. The DC50 ([4]; mean of the measurements, read-out: DC50 Mean) was 571 nM, the MIC (Acinetobacter baumannii; [12]) was greater than 50 µM and the MIC (Acinetobacter baumannii; [13]) was > 50 µM and > 109 µg/mL. It also gave an MIC (Pseudomonas aeruginosa; Gram-Negative Bacteria, replicates 1-3, listed as 8 (UdSBI-0545)) greater than 50 µM, an MIC (Pseudomonas aeruginosa; [14]) greater than 50 µM and an MIC (Pseudomonas aeruginosa; [15]) greater than 109 µg/mL. The “degradation of full-length ClpC1” value (full-length ClpC1) was “not significantly degraded”, the MIC (Enterococcus faecium; [16]) was greater than 50 µM and the MIC (Enterococcus faecium; [17]) was greater than 109 µg/mL. The MIC (Enterococcus faecium; Gram-Positive Bacteria, replicates 1-3, listed as 8 (UdSBI-0545)) was greater than 50 µM and the “Hepatocyte Rat” value ([5]; clearance in hepatocytes) was 6 %Qh.

In the case of `COC(c1ccccc1)C1NC(=O)C(C)NC(=O)C(CC(C)CO)N(C)C(=O)C(Cc2cn(C)c3ccccc23)NC(=O)C(Cc2cn(CCCCCn3cc(CC4NC(=O)C(CC(C)C)N(C)C(=O)C(C(C)C)NC(=O)C(C(OC)c5ccccc5)NC(=O)C(C)NC(=O)C(CC(C)CO)N(C)C(=O)C(Cc5cn(C)c6ccccc56)NC4=O)nn3)nn2)NC(=O)C(CC(C)C)N(C)C(=O)C(C(C)C)NC1=O` (stereo not drawn) [Compound 12], the “effect of bedaquiline on activity against Mtb H37Rv” value (Mtb H37Rv) is listed as “no effect”, the “Microsomal Stability Human” value ([1]; human, microsomes, pH 7.5) is listed as less than 24 %Qh and the “Microsomal Stability Human QH” value ([1]; human, microsomes, pH 7.5) is listed as less than 24.4%. The “Hepatocyte Human” value ([2]; human, pH 7.4) was 12 %Qh, the “MIC (µg/ml) Mycobacterium abscessus” value (Mycobacterium abscessus; [6]) was greater than 99.02 µg/mL and the MIC (Mycobacterium abscessus; [7]) was greater than 50 µM. The MIC (Mycobacterium abscessus; [8]) was > 50 µM and > 99 µg/mL, the MIC (Mycobacterium abscessus; [9]) was greater than 50 µM and the MIC (Mycobacterium abscessus; [10]) was greater than 99 µg/mL. For the same compound, the MIC (Mycobacterium abscessus; [11]) was greater than 50 µM, the “inhibition of bacterial growth, Mtb Beijing strain HN878” value [3] was “more efficient inhibition of bacterial” and the DC50 ([4]; read-out: DC50, Mean) was 170 nM. The DC50 ([4]; read-out: average DC50, endogenous ClpC1 degradation) was 170 ± 100 nM, the MIC (Acinetobacter baumannii; [12]) was greater than 50 µM and the MIC (Acinetobacter baumannii; [13]) was > 50 µM and > 99 µg/mL. The MIC (Pseudomonas aeruginosa; Gram-Negative Bacteria, replicates 1-3, listed as 12 (UdSBI-4377)) was greater than 50 µM, the MIC (Pseudomonas aeruginosa; [14]) was greater than 50 µM and the MIC (Pseudomonas aeruginosa; [15]) was greater than 99 µg/mL. The MIC (Enterococcus faecium; [16]) was greater than 50 µM, the MIC (Enterococcus faecium; [17]) was greater than 99 µg/mL and the MIC (Enterococcus faecium; Gram-Positive Bacteria, replicates 1-3, listed as 12 (UdSBI-4377)) was greater than 50 µM. For the same compound, the “Hepatocyte Rat” value ([5]; rat, pH 7.4) was 6 %Qh.
